# Measurements as given in ChEMBL document CHEMBL1649565, “Besifloxacin, a novel fluoroquinolone, has broad-spectrum in vitro activity against aerobic and anaerobic bacteria” (Antimicrob Agents Chemother, 2009).
# The source made the active and inactive calls. No cut-off for these calls is given here.
# What was measured:
# [1] = test system: Staphylococcus epidermidis; assay: Antibacterial activity against non-ciprofloxacin-susceptible and methicillin-susceptible Staphylococcus epidermidis by CLSI M100-S18 method; format: functional
# Clostridium perfringens = assay: Antibacterial activity against Clostridium perfringens by CLSI M11-A7 method; format: functional
# [2] = Drug concentration in human tears at 0.6% administered topically as single dose measured after 24 hrs; format: ADME; settings: topical or ocular, read-out: Drug uptake
# [3] = test system: Stenotrophomonas maltophilia; assay: Antibacterial activity against levofloxacin-susceptible Stenotrophomonas maltophilia by CLSI M7-A7 method; format: functional
# Staphylococcus warneri = assay: Antibacterial activity against Staphylococcus warneri assessed as percent susceptible isolates by CLSI M100-S18 method; format: functional
# Pseudomonas aeruginosa [4] = assay: Antibacterial activity against ciprofloxacin-susceptible Pseudomonas aeruginosa by CLSI M7-A7 method; format: functional
# [5] = test system: Streptococcus intermedius; assay: Antibacterial activity against Streptococcus intermedius assessed as percent susceptible isolates by CLSI M100-S18 method; format: functional
# Proteus vulgaris [6] = assay: Antibacterial activity against Proteus vulgaris by CLSI M7-A7 method; format: functional
# Acinetobacter lwoffii [7] = assay: Antibacterial activity against Acinetobacter lwoffii by CLSI M7-A7 method; format: functional
# Pseudomonas aeruginosa [8] = assay: Antibacterial activity against non-ciprofloxacin-susceptible Pseudomonas aeruginosa by CLSI M7-A7 method; format: functional
# Streptococcus mitis [9] = assay: Antibacterial activity against Streptococcus mitis assessed as percent susceptible isolates by CLSI M100-S18 method; format: functional
# Streptococcus anginosus = assay: Antibacterial activity against Streptococcus anginosus assessed as percent susceptible isolates by CLSI M100-S18 method; format: functional
# Streptococcus equinus = assay: Antibacterial activity against Streptococcus bovis assessed as percent susceptible isolates by CLSI M100-S18 method; format: functional
# Citrobacter freundii = assay: Antibacterial activity against Citrobacter freundii assessed as percent susceptible isolates by CLSI M7-A7 method; format: functional
# Streptococcus sanguinis = assay: Antibacterial activity against Streptococcus sanguinis assessed as percent susceptible isolates by CLSI M100-S18 method; format: functional
# Enterobacter cloacae = assay: Antibacterial activity against Enterobacter cloacae by CLSI M7-A7 method; format: functional
# Citrobacter koseri = assay: Antibacterial activity against Citrobacter koseri by CLSI M7-A7 method; format: functional
# [10] = test system: Streptococcus constellatus; assay: Antibacterial activity against Streptococcus constellatus assessed as percent susceptible isolates by CLSI M100-S18 method; format: functional
# Klebsiella pneumoniae = assay: Antibacterial activity against Klebsiella pneumoniae by CLSI M7-A7 method; format: functional
# Streptococcus salivarius = assay: Antibacterial activity against Streptococcus salivarius assessed as percent susceptible isolates by CLSI M100-S18 method; format: functional
# Staphylococcus aureus = assay: Antibacterial activity against non-ciprofloxacin-susceptible and methicillin-susceptible Staphylococcus aureus assessed as percent susceptible isolates by CLSI M100-S18 method; format: functional
# [11] = test system: Staphylococcus epidermidis; assay: Antibacterial activity against ciprofloxacin-susceptible and methicillin-resistant Staphylococcus epidermidis assessed as percent susceptible isolates by CLSI M100-S18 method; format: functional
# Staphylococcus hominis = assay: Antibacterial activity against Staphylococcus hominis assessed as percent susceptible isolates by CLSI M100-S18 method; format: functional
# Streptococcus oralis = assay: Antibacterial activity against Streptococcus oralis assessed as percent susceptible isolates by CLSI M100-S18 method; format: functional
# [12] = test system: Staphylococcus epidermidis
# Proteus vulgaris [13] = assay: Antibacterial activity against Proteus vulgaris assessed as percent susceptible isolates by CLSI M7-A7 method; format: functional
# Streptococcus pneumoniae [14] = assay: Antibacterial activity against levofloxacin susceptible Streptococcus pneumoniae assessed as percent susceptible isolates by CLSI M100-S18 method; format: functional
# [15] = test system: Stenotrophomonas maltophilia; assay: Antibacterial activity against non-levofloxacin susceptible Stenotrophomonas maltophilia by CLSI M7-A7 method; format: functional
# [16] = test system: Staphylococcus haemolyticus; assay: Antibacterial activity against Staphylococcus haemolyticus assessed as percent susceptible isolates by CLSI M100-S18 method; format: functional
# Haemophilus influenzae = assay: Antibacterial activity against ciprofloxacin-susceptible Haemophilus influenzae by CLSI M7-A7 method; format: functional
# Streptococcus pneumoniae [17] = assay: Antibacterial activity against non-levofloxacin susceptible Streptococcus pneumoniae by CLSI M100-S18 method; format: functional
# Peptostreptococcus sp. = assay: Antibacterial activity against Peptostreptococcus sp. by CLSI M11-A7 method; format: functional
# Bacteroides fragilis = assay: Antibacterial activity against Bacteroides fragilis by CLSI M11-A7 method; format: functional
# Neisseria meningitidis = assay: Antibacterial activity against Neisseria meningitidis by CLSI M7-A7 method; format: functional
# Streptococcus mitis [18] = assay: Antibacterial activity against Streptococcus mitis by CLSI M100-S18 method; format: functional
# Prevotella sp. = assay: Antibacterial activity against Prevotella sp. assessed as percent susceptible isolates by CLSI M11-A7 method; format: functional
# [19] = test system: Streptococcus intermedius; assay: Antibacterial activity against Streptococcus intermedius by CLSI M100-S18 method; format: functional
# [20] = test system: Staphylococcus saprophyticus; assay: Antibacterial activity against Staphylococcus saprophyticus by CLSI M100-S18 method; format: functional
# Acinetobacter lwoffii [21] = assay: Antibacterial activity against Acinetobacter lwoffii assessed as percent susceptible isolates by CLSI M7-A7 method; format: functional
# [22] = test system: Stenotrophomonas maltophilia; assay: Antibacterial activity against levofloxacin-susceptible Stenotrophomonas maltophilia assessed as assessed as percent susceptible isolates by CLSI M7-A7 method; format: functional
# Klebsiella oxytoca = assay: Antibacterial activity against Klebsiella oxytoca assessed as percent susceptible isolates by CLSI M7-A7 method; format: functional
# Pseudomonas aeruginosa [23] = assay: Antibacterial activity against non-ciprofloxacin-susceptible Pseudomonas aeruginosa assessed as percent susceptible isolates by CLSI M7-A7 method; format: functional
# [24] = test system: Stenotrophomonas maltophilia; assay: Antibacterial activity against non-levofloxacin susceptible Stenotrophomonas maltophilia assessed as percent susceptible isolates by CLSI M7-A7 method; format: functional
# [25] = test system: Acinetobacter calcoaceticus; assay: Antibacterial activity against Acinetobacter calcoaceticus assessed as percent susceptible isolates by CLSI M7-A7 method; format: functional
# Morganella morganii = assay: Antibacterial activity against Morganella morganii assessed as percent susceptible isolates by CLSI M7-A7 method; format: functional
# Moraxella catarrhalis = assay: Antibacterial activity against Moraxella catarrhalis assessed as percent susceptible isolates by CLSI M7-A7 method; format: functional
# Acinetobacter baumannii = assay: Antibacterial activity against Acinetobacter baumannii assessed as percent susceptible isolates by CLSI M7-A7 method; format: functional
# Pseudomonas aeruginosa [26] = assay: Antibacterial activity against ciprofloxacin-susceptible Pseudomonas aeruginosa assessed as percent susceptible isolates by CLSI M7-A7 method; format: functional
smiles,measurement,setting,value
N[C@@H]1CCCCN(c2c(F)cc3c(=O)c(C(=O)O)cn(C4CC4)c3c2Cl)C1 [BESIFLOXACIN],MIC,[1],0.25 µg/mL
same,MIC50,[1],0.25 µg/mL
same,MIC50,Clostridium perfringens,0.25 µg/mL
same,MIC90,Clostridium perfringens,0.25 µg/mL
same,concentration at 24 h,[2],1600 ng/mL
same,MIC,[3],1 µg/mL
same,Activity,Staphylococcus warneri,inactive
same,MIC50,Pseudomonas aeruginosa [4],1 µg/mL
same,MIC90,Pseudomonas aeruginosa [4],4 µg/mL
same,Activity,[5],0.06%
same,MIC50,Proteus vulgaris [6],0.12 µg/mL
same,MIC90,Proteus vulgaris [6],0.25 µg/mL
same,MIC50,Acinetobacter lwoffii [7],0.25 µg/mL
same,MIC90,Acinetobacter lwoffii [7],16 µg/mL
same,MIC50,Pseudomonas aeruginosa [8],16 µg/mL
same,MIC90,Pseudomonas aeruginosa [8],64 µg/mL
same,Activity,Streptococcus mitis [9],0.06%
same,Activity,Streptococcus anginosus,0.06%
same,Activity,Streptococcus equinus,0.06%
same,Activity,Citrobacter freundii,inactive
same,Activity,Streptococcus sanguinis,0.06%
same,MIC50,Enterobacter cloacae,0.12 µg/mL
same,MIC90,Enterobacter cloacae,2 µg/mL
same,MIC50,Citrobacter koseri,0.06 µg/mL
same,MIC90,Citrobacter koseri,0.25 µg/mL
same,Activity,[10],0.06%
same,MIC50,Klebsiella pneumoniae,0.25 µg/mL
same,MIC90,Klebsiella pneumoniae,4 µg/mL
same,Activity,Streptococcus salivarius,0.06%
same,Activity,Staphylococcus aureus,inactive
same,Activity,[11],inactive
same,Activity,Staphylococcus hominis,inactive
same,Activity,Streptococcus oralis,0.06%
same,MIC90,[12],inactive
same,Activity,Proteus vulgaris [13],inactive
same,Activity,Streptococcus pneumoniae [14],inactive
same,MIC,[15],0.25 µg/mL
same,Activity,[16],inactive
same,MIC50,Haemophilus influenzae,0.015 µg/mL
same,MIC90,Haemophilus influenzae,0.03 µg/mL
same,MIC50,Streptococcus pneumoniae [17],0.5 µg/mL
same,MIC90,Streptococcus pneumoniae [17],0.5 µg/mL
same,MIC50,Peptostreptococcus sp.,0.25 µg/mL
same,MIC90,Peptostreptococcus sp.,0.5 µg/mL
same,MIC50,Bacteroides fragilis,0.5 µg/mL
same,MIC90,Bacteroides fragilis,1 µg/mL
same,MIC50,Neisseria meningitidis,0.008 µg/mL
same,MIC90,Neisseria meningitidis,0.015 µg/mL
same,MIC50,Streptococcus mitis [18],0.06 µg/mL
same,MIC90,Streptococcus mitis [18],0.12 µg/mL
same,Activity,Prevotella sp.,inactive
same,MIC50,[19],0.06 µg/mL
same,MIC90,[19],0.12 µg/mL
same,MIC50,[20],0.06 µg/mL
same,MIC90,[20],0.12 µg/mL
C[C@H]1COc2c(N3CCN(C)CC3)c(F)cc3c(=O)c(C(=O)O)cn1c23.C[C@H]1COc2c(N3CCN(C)CC3)c(F)cc3c(=O)c(C(=O)O)cn1c23.O [LEVOFLOXACIN],MIC50,[1],8 µg/mL
same,MIC,[3],4 µg/mL
same,Activity,Staphylococcus warneri,74%
same,MIC50,Pseudomonas aeruginosa [4],0.5 µg/mL
same,MIC90,Pseudomonas aeruginosa [4],1 µg/mL
same,Activity,Acinetobacter lwoffii [21],86%
same,MIC50,Proteus vulgaris [6],0.03 µg/mL
same,MIC90,Proteus vulgaris [6],0.06 µg/mL
same,Activity,[22],0%
same,MIC50,Acinetobacter lwoffii [7],0.12 µg/mL
same,MIC90,Acinetobacter lwoffii [7],4 µg/mL
same,Activity,Klebsiella oxytoca,90%
same,MIC50,Pseudomonas aeruginosa [8],16 µg/mL
same,MIC90,Pseudomonas aeruginosa [8],64 µg/mL
same,Activity,Pseudomonas aeruginosa [23],1%
same,Activity,Citrobacter freundii,90%
same,MIC50,Enterobacter cloacae,0.03 µg/mL
same,MIC90,Enterobacter cloacae,0.25 µg/mL
same,MIC50,Citrobacter koseri,0.03 µg/mL
same,MIC90,Citrobacter koseri,0.12 µg/mL
same,MIC50,Klebsiella pneumoniae,0.06 µg/mL
same,MIC90,Klebsiella pneumoniae,2 µg/mL
same,Activity,Staphylococcus aureus,0%
same,Activity,[11],100%
same,Activity,Staphylococcus hominis,30%
same,MIC90,[12],inactive
same,Activity,Proteus vulgaris [13],100%
same,Activity,Streptococcus pneumoniae [14],100%
same,MIC,[15],0.12 µg/mL
same,Activity,[16],37.6%
same,MIC50,Haemophilus influenzae,0.015 µg/mL
same,MIC90,Haemophilus influenzae,0.015 µg/mL
same,MIC50,Streptococcus pneumoniae [17],16 µg/mL
same,MIC90,Streptococcus pneumoniae [17],16 µg/mL
same,Activity,[24],100%
same,Activity,[25],66.7%
same,MIC50,Neisseria meningitidis,0.008 µg/mL
same,MIC90,Neisseria meningitidis,0.015 µg/mL
same,MIC50,Streptococcus mitis [18],1 µg/mL
same,MIC90,Streptococcus mitis [18],4 µg/mL
same,Activity,Morganella morganii,76.5%
same,MIC50,[19],1 µg/mL
same,MIC90,[19],4 µg/mL
same,Activity,Moraxella catarrhalis,100%
same,MIC50,[20],0.25 µg/mL
same,MIC90,[20],0.5 µg/mL
same,Activity,Acinetobacter baumannii,37.7%
same,Activity,Pseudomonas aeruginosa [26],96.2%
NC[C@H]1O[C@H](O[C@H]2[C@H](O)[C@@H](O[C@H]3O[C@H](CO)[C@@H](O)[C@H](N)[C@H]3O)[C@H](N)C[C@@H]2N)[C@H](N)C[C@@H]1O [TOBRAMYCIN],MIC50,[1],2 µg/mL
same,MIC,[3],2 µg/mL
same,Activity,Staphylococcus warneri,34%
same,MIC50,Pseudomonas aeruginosa [4],2 µg/mL
same,MIC90,Pseudomonas aeruginosa [4],2 µg/mL
same,Activity,Acinetobacter lwoffii [21],94%
same,Activity,[5],95.5%
same,MIC50,Proteus vulgaris [6],1 µg/mL
same,MIC90,Proteus vulgaris [6],4 µg/mL
same,Activity,[22],1.9%
same,MIC50,Acinetobacter lwoffii [7],0.06 µg/mL
same,MIC90,Acinetobacter lwoffii [7],0.5 µg/mL
same,MIC50,Pseudomonas aeruginosa [8],8 µg/mL
same,MIC90,Pseudomonas aeruginosa [8],> 8 µg/mL
same,Activity,Streptococcus mitis [9],95.5%
same,Activity,Pseudomonas aeruginosa [23],44.8%
same,Activity,Streptococcus anginosus,95.5%
same,Activity,Streptococcus equinus,95.5%
same,Activity,Citrobacter freundii,99%
same,Activity,Streptococcus sanguinis,95.5%
same,MIC50,Enterobacter cloacae,0.25 µg/mL
same,MIC90,Enterobacter cloacae,1 µg/mL
same,MIC50,Citrobacter koseri,0.5 µg/mL
same,MIC90,Citrobacter koseri,1 µg/mL
same,Activity,[10],95.5%
same,MIC50,Klebsiella pneumoniae,0.25 µg/mL
same,MIC90,Klebsiella pneumoniae,1 µg/mL
same,Activity,Streptococcus salivarius,95.5%
same,Activity,Staphylococcus aureus,27.3%
same,Activity,[11],33.3%
same,Activity,Staphylococcus hominis,16%
same,Activity,Streptococcus oralis,95.5%
same,MIC90,[12],inactive
same,Activity,Proteus vulgaris [13],100%
same,Activity,Streptococcus pneumoniae [14],inactive
same,MIC,[15],> 8 µg/mL
same,Activity,[16],26.7%
same,MIC50,Haemophilus influenzae,2 µg/mL
same,MIC90,Haemophilus influenzae,8 µg/mL
same,MIC50,Streptococcus pneumoniae [17],8 µg/mL
same,MIC90,Streptococcus pneumoniae [17],16 µg/mL
same,Activity,[24],0%
same,Activity,[25],92.6%
same,MIC50,Streptococcus mitis [18],0.06 µg/mL
same,MIC90,Streptococcus mitis [18],> 8 µg/mL
same,MIC50,[19],0.06 µg/mL
same,MIC90,[19],> 8 µg/mL
same,Activity,Moraxella catarrhalis,100%
same,MIC50,[20],0.015 µg/mL
same,MIC90,[20],0.06 µg/mL
same,Activity,Acinetobacter baumannii,60.4%
same,Activity,Pseudomonas aeruginosa [26],95.2%
